Structures can show the parent of a compound that is named as a salt.
The compounds below were run against T1, BCL6 (Homo sapiens, UniProt P41182) (assay: HiBiT cellular degradation assay in Su-DHL-4 cells). Conditions: concentration to reach 50% degradation of endogenous SmBiT-tagged BCL6, 24 hours of compound treatment.
T1 construct: Endogenous BCL6 was tagged with the 11-amino acid SmBiT through CRISPR/Cas9 gene editing; endogenous in cells; host or cells: Su-DHL-4 (CRISPR/Cas9 knock-in, single cell clone)
Format: cell-based
Procedure: DC50 (concentration to reach 50% degradation) values were determined from a cellular degradation assay (HiBiT, Promega™) in Su-DHL-4 cells (Table 1). Endogenous BCL6 was tagged with the 11-amino acid SmBiT through CRISPR/Cas9 gene editing and single cell clone selection. After 24 hours of compound treatment, cells were lysed and incubated with LgBiT protein to reconstitute intact nanoluciferase. Substrate was then added and relative luciferase units were measured. Degradation levels for each treatment were taken as a percentage compared to the control, 100% DMSO (Prism).

| DC50 | Compound |
| --- | --- |
| 6 nM | CNC(=O)COc1cc2cc(Nc3ncc(C#N)c(N4C[C@@H](C)C(F)(F)[C@@H](C)C4)n3)ccc2n(C)c1=O [Compound 1, 2-((6-((5-cyano-4-((3S,5R)-4,4-difluoro-3,5-dimethylpiperidin-1-yl)pyrimidin-2-yl)amino)-1-methyl-2-oxo-1,2-dihydroquinolin-3-yl)oxy)-N-methylacetamide] |
| 9 nM | CNC(=O)COc1cc2cc(Nc3nc(N4C[C@@H](C)[C@@H](O)[C@@H](C)C4)c(C#N)cc3Cl)ccc2n(CCN(C)C)c1=O [Compound 73, 2-((6-((3-chloro-5-cyano-6-((3S,4S,5R)-4-hydroxy-3,5-dimethylpiperidin-1-yl)pyridin-2-yl)amino)-1-(2-(dimethylamino)ethyl)-2-oxo-1,2-dihydroquinolin-3-yl)oxy)-N-methylacetamide] |
| 22 nM | C[C@@H]1CN(c2nc(Nc3ccc4c(c3)n(CCC(C)(C)O)c(=O)n4C)c(Cl)cc2C#N)C[C@H](O)C1(F)F [Compound 74, 5-chloro-2-((3S,5R)-4,4-difluoro-3-hydroxy-5-methylpiperidin-1-yl)-6-((3-(3-hydroxy-3-methylbutyl)-1-methyl-2-oxo-2,3-dihydro-1H-benzo[d]imidazol-5-yl)amino)nicotinonitrile] |
| > 400 nM | C[C@H]1CN(c2nc(Nc3ccc4c(c3)n(CCC(C)(C)O)c(=O)n4C)c(Cl)cc2C#N)C[C@@H](O)C1(F)F [Compound 75, 5-chloro-2-((3R,5S)-4,4-difluoro-3-hydroxy-5-methylpiperidin-1-yl)-6-((3-(3-hydroxy-3-methylbutyl)-1-methyl-2-oxo-2,3-dihydro-1H-benzo[d]imidazol-5-yl)amino)nicotinonitrile] |
| 4 nM | CNC(=O)COc1cc2cc(Nc3nc(N4CC(C)CC(O)C4)c(C#N)cc3Cl)ccc2n(CCN(C)C)c1=O (stereo not shown) [Compound 76, 2-((6-((3-Chloro-5-cyano-6-(3-hydroxy-5-methylpiperidin-1-yl)pyridin-2-yl)amino)-1-(2-(dimethylamino)ethyl)-2-oxo-1,2-dihydroquinolin-3-yl)oxy)-N-methylacetamide] |
| 4 nM | CNC(=O)COc1cc2cc(Nc3nc(N4C[C@@H](C)C(F)[C@@H](C)C4)c(C#N)cc3Cl)ccc2n(CCN(C)C)c1=O (stereo partly drawn) [Compound 77, 2-((6-((3-Chloro-5-cyano-6-((3R,4R,5S)-4-fluoro-3,5-dimethylpiperidin-1-yl)pyridin-2-yl)amino)-1-(2-(dimethylamino)ethyl)-2-oxo-1,2-dihydroquinolin-3-yl)oxy)-N-methylacetamide] |
| > 400 nM | CNC(=O)COc1cc2cc(Nc3nc(N4C[C@@H](C)C[C@@H](C(=O)O)C4)c(C#N)cc3Cl)ccc2n(C)c1=O [Compound 78, (3R,5S)-1-(5-chloro-3-cyano-6-((1-methyl-3-(2-(methylamino)-2-oxoethoxy)-2-oxo-1,2-dihydroquinolin-6-yl)amino)pyridin-2-yl)-5-methylpiperidine-3-carboxylic acid] |
| 12 nM | CNC(=O)COc1cc2cc(Nc3nc(N4C[C@H](C)C[C@H](C(=O)O)C4)c(C#N)cc3Cl)ccc2n(C)c1=O [Compound 79, (3S,5R)-1-(5-chloro-3-cyano-6-((1-methyl-3-(2-(methylamino)-2-oxoethoxy)-2-oxo-1,2-dihydroquinolin-6-yl)amino)pyridin-2-yl)-5-methylpiperidine-3-carboxylic acid] |
| > 400 nM | C[C@@H]1CN(c2nc(Nc3ccc4c(c3)n(CCC(C)(C)O)c(=O)n4C)c(F)cc2C#N)C[C@H](N)C1(F)F [Compound 80, 2-((3S,5R)-3-Amino-4,4-difluoro-5-methylpiperidin-1-yl)-5-fluoro-6-((3-(3-hydroxy-3-methylbutyl)-1-methyl-2-oxo-2,3-dihydro-1H-benzo[d]imidazol-5-yl)amino)nicotinonitrile hydrochloride] |
| 31 nM | C[C@H]1CN(c2nc(Nc3ccc4c(c3)n(CCC(C)(C)O)c(=O)n4C)c(F)cc2C#N)C[C@@H](N)C1(F)F [Compound 81, 2-((3R,5S)-3-Amino-4,4-difluoro-5-methylpiperidin-1-yl)-5-fluoro-6-((3-(3-hydroxy-3-methylbutyl)-1-methyl-2-oxo-2,3-dihydro-1H-benzo[d]imidazol-5-yl)amino)nicotinonitrile hydrochloride] |
| 33 nM | C[C@@H]1CN(c2nc(Nc3ccc4c(c3)n(CCC(C)(C)O)c(=O)n4C)c(F)cc2C#N)C[C@H](O)C1(F)F [Compound 82, 2-((3S,5R)-4,4-difluoro-3-hydroxy-5-methylpiperidin-1-yl)-5-fluoro-6-((3-(3-hydroxy-3-methylbutyl)-1-methyl-2-oxo-2,3-dihydro-1H-benzo[d]imidazol-5-yl)amino)nicotinonitrile] |
| > 400 nM | C[C@@H]1CN(c2nc(Nc3ccc4c(c3)n(C[C@H]3CNC(=O)O3)c(=O)n4C)c(F)cc2C#N)C[C@H](N)C1(F)F [Compound 84, 2-((3S,5R)-3-amino-4,4-difluoro-5-methylpiperidin-1-yl)-5-fluoro-6-((1-methyl-2-oxo-3-(((R)-2-oxooxazolidin-5-yl)methyl)-2,3-dihydro-1H-benzo[d]imidazol-5-yl)amino)nicotinonitrile] |
| > 400 nM | C[C@H]1CN(c2nc(Nc3ccc4c(c3)n(C[C@@H]3CNC(=O)O3)c(=O)n4C)c(F)cc2C#N)C[C@@H](N)C1(F)F [Compound 85, 2-[(3R,5S)-3-amino-4,4-difluoro-5-methyl-1-piperidyl]-5-fluoro-6-[[1-methyl-2-oxo-3-[[(5S)-2-oxooxazolidin-5-yl]methyl]benzimidazol-5-yl]amino]pyridine-3-carbonitrile] |
| 83 nM | C[C@@H]1CN(c2nc(Nc3ccc4c(c3)n(C[C@H]3CNC(=O)O3)c(=O)n4C)c(F)cc2C#N)C[C@H](C)[C@@H]1F [Compound 86, 5-Fluoro-2-((3S,4S,5R)-4-fluoro-3,5-dimethylpiperidin-1-yl)-6-((1-methyl-2-oxo-3-(((R)-2-oxooxazolidin-5-yl)methyl)-2,3-dihydro-1H-benzo[d]imidazol-5-yl)amino)nicotinonitrile] |
| 101 nM | C[C@@H]1CN(c2nc(Nc3ccc4c(c3)n(C[C@@H]3CNC(=O)O3)c(=O)n4C)c(F)cc2C#N)C[C@H](C)[C@@H]1F [Compound 87, 5-Fluoro-2-[(3S,4S,5R)-4-fluoro-3,5-dimethyl-1-piperidyl]-6-[[1-methyl-2-oxo-3-[[(5S)-2-oxooxazolidin-5-yl]methyl]benzimidazol-5-yl]amino]pyridine-3-carbonitrile] |
| 80 nM | C[C@@H]1CN(c2nc(Nc3ccc4c(c3)n(C[C@@H]3COC(=O)N3)c(=O)n4C)c(F)cc2C#N)C[C@H](C)[C@@H]1F [Compound 88, 5-Fluoro-2-((3S,4S,5R)-4-fluoro-3,5-dimethylpiperidin-1-yl)-6-((1-methyl-2-oxo-3-(((R)-2-oxooxazolidin-4-yl)methyl)-2,3-dihydro-1H-benzo[d]imidazol-5-yl)amino)nicotinonitrile] |
| 102 nM | C[C@@H]1CN(c2nc(Nc3ccc4c(c3)n(C[C@H]3COC(=O)N3)c(=O)n4C)c(F)cc2C#N)C[C@H](C)[C@@H]1F [Compound 89, 5-Fluoro-2-((3S,4S,5R)-4-fluoro-3,5-dimethylpiperidin-1-yl)-6-((1-methyl-2-oxo-3-(((S)-2-oxooxazolidin-4-yl)methyl)-2,3-dihydro-1H-benzo[d]imidazol-5-yl)amino)nicotinonitrile] |
| 73 nM | C[C@H](O)Cn1c(=O)n(CCC(C)(C)O)c2cc(Nc3nc(N4C[C@@H](N)C(F)(F)[C@@H](C)C4)c(C#N)cc3F)ccc21 [Compound 90, 2-((3R,5S)-3-Amino-4,4-difluoro-5-methylpiperidin-1-yl)-5-fluoro-6-((3-(3-hydroxy-3-methylbutyl)-1-((S)-2-hydroxypropyl)-2-oxo-2,3-dihydro-1H-benzo[d]imidazol-5-yl)amino)nicotinonitrile] |
| 118 nM | C[C@@H](O)Cn1c(=O)n(CCC(C)(C)O)c2cc(Nc3nc(N4C[C@@H](N)C(F)(F)[C@@H](C)C4)c(C#N)cc3F)ccc21 [Compound 91, 2-((3R,5S)-3-Amino-4,4-difluoro-5-methylpiperidin-1-yl)-5-fluoro-6-((3-(3-hydroxy-3-methylbutyl)-1-((R)-2-hydroxypropyl)-2-oxo-2,3-dihydro-1H-benzo[d]imidazol-5-yl)amino)nicotinonitrile] |

These compounds were tested on Su-DHL-4 cells (assay: CellTiter-Glo cell proliferation, BCL6 degrader with EZH2 inhibitors). Conditions: EZH2 inhibitor at 480 nM added to BCL6 degrader (compound 1); Su-DHL-4 cells; 60% growth inhibition.
Format: cell-based
Procedure: Enhancer of zeste homolog 2 (EZH2) is a member of the polycomb repressive complex 2 (PRC2) that methylates histone 3 lysine 27, a mark that is associated with gene repression.
To ensure HiBiT signal decrease was due to BCL6 degradation and not from dying cells, CellTiter-Glo® (CTG, Promega™) was performed on the same number of cells that were treated for 24 hours with BCL6 degraders. To study the anti-proliferative effects of BCL6 degraders and its synergistic effect with EZH2 inhibitors, Su-DHL-4 and other DLBCL cells were treated with the compounds at DC99, DC75, DC50, or 1 μM followed by 5 days of culture, at which point CTG values and/or Caspase3/7 activities were measured as percent DMSO treated.

| Compound | reduction of BCL6 degrader dose requirement to achieve GI60 |
| --- | --- |
| COc1cc(C)[nH]c(=O)c1CNC(=O)c1c(C)n([C@H](C)C2CCN(CC(F)(F)F)CC2)c2ccccc12 [Lira, Lirametostat, reference compound] | around 4.3 fold |

Same assay, conditions: compound 1 (50 nM to 2 nM) added 48 hours after Tazemetostat or Lirametostat (10 μM to 5 nM); read five days later; over most of the concentration range

| Compound | excess over Bliss (eob) score |
| --- | --- |
| CNC(=O)COc1cc2cc(Nc3ncc(C#N)c(N4C[C@@H](C)C(F)(F)[C@@H](C)C4)n3)ccc2n(C)c1=O [Compound 1, 2-((6-((5-cyano-4-((3S,5R)-4,4-difluoro-3,5-dimethylpiperidin-1-yl)pyrimidin-2-yl)amino)-1-methyl-2-oxo-1,2-dihydroquinolin-3-yl)oxy)-N-methylacetamide] | > 1 |

Same assay, conditions: compound 1 with Tazemetostat or Lirametostat; Su-DHL-4 cells; over most of the concentration range

| Compound | average synergy score (SynergyFinder) |
| --- | --- |
| CNC(=O)COc1cc2cc(Nc3ncc(C#N)c(N4C[C@@H](C)C(F)(F)[C@@H](C)C4)n3)ccc2n(C)c1=O [Compound 1, 2-((6-((5-cyano-4-((3S,5R)-4,4-difluoro-3,5-dimethylpiperidin-1-yl)pyrimidin-2-yl)amino)-1-methyl-2-oxo-1,2-dihydroquinolin-3-yl)oxy)-N-methylacetamide] | over 10 |

Source: US20250074890A1, “CYANOPYRIDINE AND CYANOPYRIMIDINE BCL6 DEGRADERS” (DANA-FARBER CANCER INSTITUTE, INC., priority 2021, published 2025)
